This is an account of results in patent publication US12398132B2, “Derivatives of 4-(imidazo[1,2-a]pyridin-3-yl)-n-(pyridinyl)pyrimidin-2-amine as therapeutic agents” (AUCENTRA THERAPEUTICS PTY LTD, priority 2019, dated 2025).

Usually GI50 stands for the concentration giving 50% growth inhibition.

One experiment has as its target CDK4/D1 (Homo sapiens, UniProt P11802). Put plainly: ADP Glo kinase assay, CDK4/D1. Particulars: CDK4D1; for remaining activity at 10 µM: compound at 10 μM, read-out: residual enzymatic activity (%) at 10 μM; for remaining activity at 1 µM: compound at 1 μM (values marked *), read-out: residual enzymatic activity (%) at 1 μM*. It is filed as biochemical.
For a further experiment, the target named is CDK6/D3 (Homo sapiens, UniProt Q00534). Briefly: ADP Glo kinase assay, CDK6/D3. It is filed as biochemical. The settings on record: CDK6D3; for remaining activity at 10 µM: compound at 10 μM, read-out: residual enzymatic activity (%) at 10 μM; for remaining activity at 1 µM: compound at 1 μM (values marked *), read-out: residual enzymatic activity (%) at 1 μM*. (ADP-Glo first removes unused ATP, then detects ADP through luciferase.)

A further experiment concerns the target CDK9/CyclinT1 (Homo sapiens, UniProt P50750). Put plainly: ADP Glo kinase assay, CDK9/CyclinT1. It is filed as biochemical. The settings on record: CDK9T1; for remaining activity at 10 µM: compound at 10 μM, read-out: residual enzymatic activity (%) at 10 μM.
In the next experiment the target is T1, FLT3(WT) (Homo sapiens, UniProt P36888).
T1 sequence (P36888 27-993): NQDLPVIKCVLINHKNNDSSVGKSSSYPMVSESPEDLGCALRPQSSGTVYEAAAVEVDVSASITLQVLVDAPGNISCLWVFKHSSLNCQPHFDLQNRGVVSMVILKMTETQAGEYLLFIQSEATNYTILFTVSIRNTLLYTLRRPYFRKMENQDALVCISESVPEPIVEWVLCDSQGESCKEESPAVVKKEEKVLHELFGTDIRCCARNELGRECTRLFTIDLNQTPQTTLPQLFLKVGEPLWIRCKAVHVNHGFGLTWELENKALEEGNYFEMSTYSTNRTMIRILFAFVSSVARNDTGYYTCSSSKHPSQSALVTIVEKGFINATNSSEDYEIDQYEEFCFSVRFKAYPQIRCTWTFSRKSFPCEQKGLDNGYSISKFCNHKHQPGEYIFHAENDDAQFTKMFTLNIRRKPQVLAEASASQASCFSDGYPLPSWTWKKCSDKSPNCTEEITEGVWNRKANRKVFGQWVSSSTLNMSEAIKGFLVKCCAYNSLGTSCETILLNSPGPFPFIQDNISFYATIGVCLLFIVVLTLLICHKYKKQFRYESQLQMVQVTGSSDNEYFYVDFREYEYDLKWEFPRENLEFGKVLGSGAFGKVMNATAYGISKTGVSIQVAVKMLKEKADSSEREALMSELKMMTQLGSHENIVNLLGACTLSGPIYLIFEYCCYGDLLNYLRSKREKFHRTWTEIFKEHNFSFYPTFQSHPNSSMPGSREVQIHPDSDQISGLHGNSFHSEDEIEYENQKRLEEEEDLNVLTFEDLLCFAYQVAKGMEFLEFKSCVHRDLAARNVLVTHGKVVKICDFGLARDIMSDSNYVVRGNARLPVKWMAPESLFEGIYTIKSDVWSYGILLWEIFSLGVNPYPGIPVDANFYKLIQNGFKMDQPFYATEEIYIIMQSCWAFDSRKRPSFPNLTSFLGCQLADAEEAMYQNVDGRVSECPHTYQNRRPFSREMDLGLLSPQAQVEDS
Briefly: ADP Glo kinase assay, FLT3(WT). It is filed as biochemical. Particulars: for remaining activity at 1 µM: compound at 1 μM, read-out: residual enzymatic activity (%) at 1 μM; for Ki: apparent Ki calculated from Km (ATP) and IC50, read-out: FLT3 inhibition Ki.

The target of a further experiment is T2, FLT3(ITD) (Homo sapiens, UniProt P36888).
T2 sequence (P36888 1-993): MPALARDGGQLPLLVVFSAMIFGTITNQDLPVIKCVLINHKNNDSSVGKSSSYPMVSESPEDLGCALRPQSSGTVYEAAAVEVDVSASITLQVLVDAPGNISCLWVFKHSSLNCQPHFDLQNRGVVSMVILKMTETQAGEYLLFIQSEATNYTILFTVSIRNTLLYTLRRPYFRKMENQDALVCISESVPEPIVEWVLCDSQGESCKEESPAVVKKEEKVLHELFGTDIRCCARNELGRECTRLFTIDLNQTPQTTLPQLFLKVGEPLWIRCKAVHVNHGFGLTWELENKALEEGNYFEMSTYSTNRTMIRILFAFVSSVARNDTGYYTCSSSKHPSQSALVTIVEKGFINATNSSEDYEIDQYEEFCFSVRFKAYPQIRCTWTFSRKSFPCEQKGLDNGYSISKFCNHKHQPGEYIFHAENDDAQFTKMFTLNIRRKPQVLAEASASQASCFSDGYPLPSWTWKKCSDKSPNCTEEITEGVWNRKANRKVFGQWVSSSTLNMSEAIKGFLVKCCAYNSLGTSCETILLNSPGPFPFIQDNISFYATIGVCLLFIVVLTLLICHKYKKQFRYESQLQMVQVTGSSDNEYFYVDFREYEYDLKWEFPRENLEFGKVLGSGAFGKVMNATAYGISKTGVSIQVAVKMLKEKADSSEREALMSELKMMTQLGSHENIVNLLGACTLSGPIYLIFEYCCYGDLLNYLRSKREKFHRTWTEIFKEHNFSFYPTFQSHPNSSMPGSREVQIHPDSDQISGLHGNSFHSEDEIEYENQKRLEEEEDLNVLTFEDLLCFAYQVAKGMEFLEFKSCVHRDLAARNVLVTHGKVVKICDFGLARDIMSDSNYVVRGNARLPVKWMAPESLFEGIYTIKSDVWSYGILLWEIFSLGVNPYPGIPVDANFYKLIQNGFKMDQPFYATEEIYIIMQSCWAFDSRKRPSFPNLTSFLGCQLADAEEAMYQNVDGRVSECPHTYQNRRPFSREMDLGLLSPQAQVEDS
Briefly: ADP Glo kinase assay, FLT3(ITD). It is filed as biochemical. Particulars: apparent Ki calculated from Km (ATP) and IC50, read-out: FLT3 inhibition Ki.

A further experiment concerns the target T3, FLT3(D835Y) (Homo sapiens, UniProt P36888, D835Y).
T3 sequence (P36888 27-993 D835Y): T1 sequence (P36888 27-993) with D809Y
Put plainly: ADP Glo kinase assay, FLT3(D835Y). It is filed as biochemical. Particulars: apparent Ki calculated from Km (ATP) and IC50, read-out: FLT3 inhibition Ki.

The subject of the next experiment is MV-4-11. Briefly: Proliferation assay (resazurin/MTT), MV-4-11. It is filed as cell-based. The settings on record: Homo sapiens, MV4-11, read-out: 72 h Growth inhibition GI50, MV-4-11 cells. On the technique in general: Alamar Blue is a resazurin reagent that responds to reducing activity.
For a further experiment, the system named is U937. Put plainly: Proliferation assay (resazurin/MTT), U937. It is filed as cell-based. The settings on record: Homo sapiens, U-937, read-out: 72 h Growth inhibition GI50, U937 cells.
A further experiment has as its target CDK1B (Homo sapiens, UniProt P06493).
The next experiment addresses CDK2E1 (Homo sapiens, UniProt P24941). The settings on record: 1 µM.
Another experiment concerns the target CDK7HMAT1 (Homo sapiens, UniProt P50613). The settings on record: 10 µM.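 Also: kinase activity measured with an ADP-Glo luminescent kinase assay.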

Numbering of substitutions follows the chain as printed. Like-named read-outs stand apart in the source and are kept apart here.

CDK4/D1, sequence (P11802 whole entry, species assumed): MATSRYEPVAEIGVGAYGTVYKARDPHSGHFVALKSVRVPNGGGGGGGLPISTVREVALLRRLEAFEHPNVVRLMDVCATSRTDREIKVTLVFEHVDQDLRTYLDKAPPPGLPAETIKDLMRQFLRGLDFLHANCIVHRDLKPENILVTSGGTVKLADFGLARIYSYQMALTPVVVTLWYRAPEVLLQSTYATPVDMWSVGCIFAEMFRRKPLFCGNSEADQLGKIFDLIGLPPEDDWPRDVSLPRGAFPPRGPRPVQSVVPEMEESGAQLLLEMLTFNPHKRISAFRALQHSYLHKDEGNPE
CDK4/D1, sequence (P24385 whole entry partner, species assumed): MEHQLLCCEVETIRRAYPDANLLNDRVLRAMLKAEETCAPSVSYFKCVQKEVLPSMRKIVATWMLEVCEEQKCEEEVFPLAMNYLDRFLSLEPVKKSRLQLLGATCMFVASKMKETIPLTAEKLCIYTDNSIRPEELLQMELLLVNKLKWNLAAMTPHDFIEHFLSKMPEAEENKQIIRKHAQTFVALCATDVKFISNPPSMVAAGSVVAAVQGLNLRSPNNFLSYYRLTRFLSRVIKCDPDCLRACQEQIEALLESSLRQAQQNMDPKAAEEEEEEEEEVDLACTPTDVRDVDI
CDK9/CyclinT1, sequence (P50750 whole entry, species assumed): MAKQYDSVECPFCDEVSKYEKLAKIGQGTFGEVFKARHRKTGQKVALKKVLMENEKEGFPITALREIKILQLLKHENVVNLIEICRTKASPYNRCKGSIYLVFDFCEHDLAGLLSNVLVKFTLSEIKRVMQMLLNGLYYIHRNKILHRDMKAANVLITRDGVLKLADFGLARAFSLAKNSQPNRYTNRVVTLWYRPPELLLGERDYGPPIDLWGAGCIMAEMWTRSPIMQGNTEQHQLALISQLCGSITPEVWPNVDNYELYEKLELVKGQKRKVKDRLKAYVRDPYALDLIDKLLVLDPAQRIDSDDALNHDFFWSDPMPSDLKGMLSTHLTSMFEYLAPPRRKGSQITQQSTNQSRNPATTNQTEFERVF
CDK9/CyclinT1, sequence (O60563 whole entry partner, species assumed): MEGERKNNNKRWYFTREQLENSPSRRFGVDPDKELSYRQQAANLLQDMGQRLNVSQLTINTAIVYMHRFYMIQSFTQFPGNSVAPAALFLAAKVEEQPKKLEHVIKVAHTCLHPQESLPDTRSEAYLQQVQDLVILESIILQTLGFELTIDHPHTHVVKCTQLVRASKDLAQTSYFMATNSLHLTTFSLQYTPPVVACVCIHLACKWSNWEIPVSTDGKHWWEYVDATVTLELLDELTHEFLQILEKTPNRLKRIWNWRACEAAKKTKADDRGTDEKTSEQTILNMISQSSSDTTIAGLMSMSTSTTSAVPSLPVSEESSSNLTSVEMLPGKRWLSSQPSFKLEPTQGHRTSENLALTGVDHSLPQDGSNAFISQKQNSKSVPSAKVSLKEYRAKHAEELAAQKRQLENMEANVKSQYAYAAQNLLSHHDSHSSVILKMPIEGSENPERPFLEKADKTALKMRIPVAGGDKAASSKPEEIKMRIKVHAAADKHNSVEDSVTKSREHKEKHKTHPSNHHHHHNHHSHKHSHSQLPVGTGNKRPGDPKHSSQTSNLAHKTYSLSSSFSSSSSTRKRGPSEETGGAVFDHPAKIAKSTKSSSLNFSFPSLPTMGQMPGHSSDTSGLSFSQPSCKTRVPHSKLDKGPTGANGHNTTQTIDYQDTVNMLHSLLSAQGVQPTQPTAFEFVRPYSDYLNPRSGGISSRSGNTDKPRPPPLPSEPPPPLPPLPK
CDK1B, sequence (P06493 whole entry): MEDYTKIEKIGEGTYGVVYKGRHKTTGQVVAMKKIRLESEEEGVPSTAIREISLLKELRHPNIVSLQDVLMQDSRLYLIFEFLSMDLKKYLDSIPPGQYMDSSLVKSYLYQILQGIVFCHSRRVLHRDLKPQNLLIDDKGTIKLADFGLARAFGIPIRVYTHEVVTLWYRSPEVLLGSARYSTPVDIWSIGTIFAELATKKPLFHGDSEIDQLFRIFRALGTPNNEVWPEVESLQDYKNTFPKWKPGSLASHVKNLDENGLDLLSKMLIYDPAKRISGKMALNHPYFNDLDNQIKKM
CDK1B, sequence (P14635 whole entry partner): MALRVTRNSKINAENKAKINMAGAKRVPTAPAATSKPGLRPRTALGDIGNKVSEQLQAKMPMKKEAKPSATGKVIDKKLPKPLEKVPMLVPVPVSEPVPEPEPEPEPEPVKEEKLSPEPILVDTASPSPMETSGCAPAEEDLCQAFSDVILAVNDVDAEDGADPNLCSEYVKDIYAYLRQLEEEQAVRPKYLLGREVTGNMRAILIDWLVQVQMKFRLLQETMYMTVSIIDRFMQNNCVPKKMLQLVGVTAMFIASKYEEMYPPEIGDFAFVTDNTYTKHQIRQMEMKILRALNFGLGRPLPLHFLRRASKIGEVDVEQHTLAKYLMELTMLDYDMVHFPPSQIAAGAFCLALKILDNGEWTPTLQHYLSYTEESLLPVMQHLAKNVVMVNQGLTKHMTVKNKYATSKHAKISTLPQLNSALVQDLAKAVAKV
CDK7HMAT1, sequence (P50613 whole entry): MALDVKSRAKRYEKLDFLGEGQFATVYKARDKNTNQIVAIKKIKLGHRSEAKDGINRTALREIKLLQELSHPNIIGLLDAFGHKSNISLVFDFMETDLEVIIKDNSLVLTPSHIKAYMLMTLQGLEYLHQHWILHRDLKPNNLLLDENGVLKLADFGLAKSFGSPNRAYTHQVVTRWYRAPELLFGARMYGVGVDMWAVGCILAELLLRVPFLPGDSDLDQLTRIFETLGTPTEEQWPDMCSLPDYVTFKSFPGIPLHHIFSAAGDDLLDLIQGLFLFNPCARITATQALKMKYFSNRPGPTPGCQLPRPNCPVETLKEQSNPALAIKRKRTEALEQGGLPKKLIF
CDK7HMAT1, sequence (P51946 whole entry partner): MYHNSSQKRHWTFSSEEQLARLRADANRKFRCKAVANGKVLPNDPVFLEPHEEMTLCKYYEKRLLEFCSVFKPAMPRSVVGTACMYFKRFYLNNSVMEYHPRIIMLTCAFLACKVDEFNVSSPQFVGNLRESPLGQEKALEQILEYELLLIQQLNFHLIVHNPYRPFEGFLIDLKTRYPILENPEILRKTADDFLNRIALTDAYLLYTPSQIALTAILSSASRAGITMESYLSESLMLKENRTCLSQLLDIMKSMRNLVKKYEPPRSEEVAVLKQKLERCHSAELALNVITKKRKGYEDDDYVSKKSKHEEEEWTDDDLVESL
CDK7HMAT1, sequence (P51948 whole entry partner): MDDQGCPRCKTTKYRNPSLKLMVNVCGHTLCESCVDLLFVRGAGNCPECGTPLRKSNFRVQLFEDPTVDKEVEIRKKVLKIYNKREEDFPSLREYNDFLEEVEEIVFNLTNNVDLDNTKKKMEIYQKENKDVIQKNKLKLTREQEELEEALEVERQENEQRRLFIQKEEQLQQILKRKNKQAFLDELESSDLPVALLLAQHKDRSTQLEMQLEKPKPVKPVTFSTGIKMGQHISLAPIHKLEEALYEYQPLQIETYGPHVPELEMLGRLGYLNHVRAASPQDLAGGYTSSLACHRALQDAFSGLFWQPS
CDK6/D3, sequence (Q00534 whole entry, species assumed): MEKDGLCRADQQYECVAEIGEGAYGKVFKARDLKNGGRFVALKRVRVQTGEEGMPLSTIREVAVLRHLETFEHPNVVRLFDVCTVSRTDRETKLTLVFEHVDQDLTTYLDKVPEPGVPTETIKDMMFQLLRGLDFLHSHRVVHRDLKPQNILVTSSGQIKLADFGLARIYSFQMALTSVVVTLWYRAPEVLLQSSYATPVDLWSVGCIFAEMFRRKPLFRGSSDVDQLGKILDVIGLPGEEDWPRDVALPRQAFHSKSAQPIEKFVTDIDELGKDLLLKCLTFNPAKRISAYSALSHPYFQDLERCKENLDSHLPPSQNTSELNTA
CDK6/D3, sequence (P30281 whole entry partner, species assumed): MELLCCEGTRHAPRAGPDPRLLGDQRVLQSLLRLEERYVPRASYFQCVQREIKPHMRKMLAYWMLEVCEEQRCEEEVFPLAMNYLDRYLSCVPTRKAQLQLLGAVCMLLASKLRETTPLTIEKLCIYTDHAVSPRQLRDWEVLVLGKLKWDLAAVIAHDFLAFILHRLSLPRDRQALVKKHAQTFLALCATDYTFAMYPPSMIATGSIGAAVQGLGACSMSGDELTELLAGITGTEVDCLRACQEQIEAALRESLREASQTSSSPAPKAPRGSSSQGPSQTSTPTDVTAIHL
Experimental for CDK6/D3: Inhibition of FLT3(WT), FLT3(ITD) and FLT3(D835Y) and CDKs were determined using ADP Glo Kinase assays (Promega Corporation, Madison, WI, USA). […] Similarly, kinase reaction for CDK4/D1 and CDK6/D3 was performed with reaction buffer (40 nM Tris base pH 7.5, 20 mM MgCl2, 0.4 mM DTT), 0.1 mg/ml BSA and RB-CTF substrate (retinoblastoma protein1 C-terminal fraction). For CDK9/CyclinT1, the kinase reaction was performed with the standard assay buffer and Kinase Dilution Buffer and RBER-IRStide substrate. Half-maximal inhibition (IC50) values were calculated using a 4-parameter logistic non-linear regression model with Graphpad prism (Version 6.0). Apparent inhibition constants (Ki) values were calculated from Km (ATP) and IC50 values for the respective kinases.
Experimental for CDK7HMAT1: (§1) Inhibition of FLT3(WT), FLT3(ITD) and FLT3(D835Y) and CDKs were determined using ADP Glo Kinase assays (Promega Corporation, Madison, WI, USA). […] The kinase reactions are run for an optimised time period (FLT3-WT: 120 min, FLT3-ITD: 80 min, FLT3-D835Y: 100 min) at room temperature and then the reaction was stopped by adding 5 μL of ADP Glo reagent. […] Positive and negative controls were performed in 0.5% DMSO in the presence and absence of each FLT3 kinase, respectively. […] Half-maximal inhibition (IC50) values were calculated using a 4-parameter logistic non-linear regression model with Graphpad prism (Version 6.0). Apparent inhibition constants (Ki) values were calculated from Km (ATP) and IC50 values for the respective kinases.
Experimental for FLT3(D835Y): as §1
Experimental for FLT3(ITD): as §1
Experimental for FLT3(WT): as §1

With `c1ccn2c(-c3ccnc(Nc4ccc(N5CCCCC5)cn4)n3)cnc2c1` [Cmpd 5, 4-(Imidazo[1,2-a]pyridin-3-yl)-N-(5-(piperidin-1-yl)pyridin-2-yl)pyrimidin-2-amine], the remaining activity at 10 µM was 53% on CDK4/D1, 23% on CDK6/D3 and 28% at CDK9/CyclinT1. Moreover, the remaining activity at 1 µM on FLT3(WT) came out at 45%. The results for the Ki at FLT3(ITD) and at FLT3(D835Y) were 63 nM and 45 nM, respectively. The GI50 with MV-4-11 was determined as 75 nM; in the experiment with U937, 6200 nM. In addition, the activity was 48% on CDK1B (10 µM), 81% on CDK2E1 and 84% on CDK7HMAT1.

For `CC(=O)N1CCN(c2ccc(Nc3nccc(-c4cnc5ccc(Cl)cn45)n3)nc2)CC1` [Cmpd 9, 1-(4-(6-((4-(6-Chloroimidazo[1,2-a]pyridin-3-yl)pyrimidin-2-yl)amino)pyridin-3-yl)piperazin-1-yl)ethan-1-one], the remaining activity at 10 µM at CDK4/D1 was 46%; on CDK6/D3 it was 32%; on CDK9/CyclinT1, 28%. The Ki at FLT3(WT) is 117 nM; at FLT3(ITD), 30 nM; on FLT3(D835Y), 9 nM. Besides, the GI50 is 15 nM with MV-4-11 and 797 nM in the experiment with U937. The activity at CDK1B (10 µM) came out at 94%; at CDK2E1 it was 64%; on CDK7HMAT1, 76%.

Take `CC(=O)N1CCN(c2ccc(Nc3nccc(-c4cnc5ccc(-c6cncnc6)cn45)n3)nc2)CC1` [Cmpd 16, 1-(4-(6-((4-(6-(Pyrimidin-5-yl)imidazo[1,2-a]pyridin-3-yl)pyrimidin-2-yl)amino)pyridin-3-yl)piperazin-1-yl)ethan-1-one]: the figures for the remaining activity at 10 µM on CDK4/D1 and on CDK6/D3 were 78% and 99%, respectively. The remaining activity at 1 µM at FLT3(WT) turned out to be 23%. Further, the Ki at FLT3(ITD) is 426 nM; on FLT3(D835Y), 48 nM. Moreover, the GI50 in the experiment on MV-4-11 came to 18 nM; in the experiment with U937, 2920 nM. The results for the activity on CDK1B (10 µM), at CDK2E1 and at CDK7HMAT1 were 81%, 90% and 60%, respectively.

As to `CN1CCN(c2ccc(Nc3nccc(-c4cnc5ccc(Br)cn45)n3)nc2)CC1` [Cmpd 45, 4-(6-Bromoimidazo[1,2-a]pyridin-3-yl)-N-(5-(4-methylpiperazin-1-yl)pyridin-2-yl)pyrimidin-2-amine], the remaining activity at 1 µM on CDK4/D1 came out at 34%; on CDK6/D3, 46%. The Ki on CDK9/CyclinT1 (apparent Ki calculated from Km (ATP) and IC50, read-out: CDK inhibition Ki) is 111 nM; at FLT3(WT), 25 nM; on FLT3(ITD), 15 nM; on FLT3(D835Y), 13 nM. The GI50 with MV-4-11 turned out to be 23 nM; with U937, 1960 nM. Also, the activity at CDK1B (1 µM) is 71%; at CDK2E1 it was 49%.

For `Brc1ccc(Nc2nccc(-c3cnc4ccccn34)n2)nc1` [Cmpd 47, N-(5-Bromopyridin-2-yl)-4-(imidazo[1,2-a]pyridin-3-yl)pyrimidin-2-amine], the remaining activity at 1 µM was determined as 72% at CDK4/D1 and 85% on CDK6/D3. Further, the remaining activity at 10 µM on CDK9/CyclinT1 worked out at 62%. Moreover, the values for the Ki on FLT3(WT), at FLT3(ITD) and at FLT3(D835Y) were above 500 nM, 489 nM and above 500 nM, respectively. In addition, the GI50 was found to be 545 nM with MV-4-11 and 645 nM with U937. Besides, the activity is 79% on CDK1B (1 µM) and 103% on CDK2E1.

As for `Clc1ccc(Nc2nccc(-c3cnc4ccccn34)n2)nc1` [Cmpd 52, N-(5-Chloropyridin-2-yl)-4-(imidazo[1,2-a]pyridin-3-yl)pyrimidin-2-amine], the Ki on FLT3(WT) was above 500 nM; at FLT3(ITD), 421 nM; on FLT3(D835Y), 584 nM. Further, the results for the GI50 in the experiment with MV-4-11 and in the experiment on U937 were 213 nM and 691 nM, respectively. Also, the activity on CDK2E1 is 52%.

Take `Ic1ccc(Nc2nccc(-c3cnc4ccccn34)n2)nc1` [Cmpd 53, 4-(Imidazo[1,2-a]pyridin-3-yl)-N-(5-iodopyridin-2-yl)pyrimidin-2-amine]: the Ki at FLT3(WT), on FLT3(ITD) and at FLT3(D835Y) was above 500 nM each time. The GI50 in the experiment on MV-4-11 amounted to 382 nM; with U937, 2500 nM. Moreover, on CDK2E1, the activity came out at 99%.
